We go through 18 compounds from US6723741B2, “Benzimidazoles and benzothiazoles and uses thereof” (Synaptic Pharmaceutical Corporation, priority 1996, dated 2004).

Structures can show the parent of a compound that is named as a salt.

The target of data set [1] is human α2A adrenergic receptor (Homo sapiens, UniProt P08913). The data set can be described thus: Agonist activity: inhibition of forskolin-stimulated cAMP synthesis.
Data set [2] deals with human α2C adrenergic receptor (Homo sapiens, UniProt P18825). The data set can be described thus: Radioligand binding assay, [3H]rauwolscine competition.
Data set [3] concerns the target T1, human α2A adrenergic receptor (Homo sapiens, UniProt P08913).
T1 sequence (P08913 1-465): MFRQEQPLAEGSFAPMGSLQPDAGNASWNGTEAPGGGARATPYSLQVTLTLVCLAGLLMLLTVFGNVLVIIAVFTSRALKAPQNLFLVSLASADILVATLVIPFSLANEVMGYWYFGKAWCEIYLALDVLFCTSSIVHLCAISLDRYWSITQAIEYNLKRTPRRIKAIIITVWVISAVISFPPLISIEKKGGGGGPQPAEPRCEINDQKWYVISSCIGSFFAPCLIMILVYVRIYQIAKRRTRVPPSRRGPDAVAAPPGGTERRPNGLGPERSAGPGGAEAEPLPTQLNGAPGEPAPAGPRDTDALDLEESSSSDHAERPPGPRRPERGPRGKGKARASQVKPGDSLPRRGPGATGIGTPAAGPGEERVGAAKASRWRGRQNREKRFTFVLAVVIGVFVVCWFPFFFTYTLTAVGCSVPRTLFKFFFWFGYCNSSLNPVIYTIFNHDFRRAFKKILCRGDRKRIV
Kind of data set: Agonist activity: inhibition of forskolin-stimulated cAMP synthesis. This is another data set of the same source.

For data set [4], the target named is T2, human α2B adrenergic receptor (Homo sapiens, UniProt P18089).
T2 construct: expressed in transfected cells
T2 sequence (P18089 1-450): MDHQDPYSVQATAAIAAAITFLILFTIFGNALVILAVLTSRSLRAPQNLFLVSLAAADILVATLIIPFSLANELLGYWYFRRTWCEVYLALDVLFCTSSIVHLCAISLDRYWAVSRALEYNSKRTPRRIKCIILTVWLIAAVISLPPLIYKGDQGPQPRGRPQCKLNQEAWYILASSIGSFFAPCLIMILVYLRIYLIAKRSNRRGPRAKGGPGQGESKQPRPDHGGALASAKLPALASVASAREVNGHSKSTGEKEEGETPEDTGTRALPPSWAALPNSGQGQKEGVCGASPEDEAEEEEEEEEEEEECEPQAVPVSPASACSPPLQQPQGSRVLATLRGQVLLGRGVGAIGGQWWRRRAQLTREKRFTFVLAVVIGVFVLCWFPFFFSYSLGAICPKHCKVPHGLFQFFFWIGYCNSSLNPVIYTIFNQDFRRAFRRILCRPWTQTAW
The data set is described as above. It counts as cell-based.

The target in data set [5] is T2, human α2B adrenergic receptor. Kind of data set: Radioligand binding assay, [3H]rauwolscine competition.
Data set [6] deals with T3, human α2C adrenergic receptor (Homo sapiens, UniProt P18825).
T3 construct: The entire coding region of α2C (1383 bp), including 2 bp of 5′ UT and 400 bp of 3′ UT; expressed in transfected cells
T3 sequence (P18825 1-462): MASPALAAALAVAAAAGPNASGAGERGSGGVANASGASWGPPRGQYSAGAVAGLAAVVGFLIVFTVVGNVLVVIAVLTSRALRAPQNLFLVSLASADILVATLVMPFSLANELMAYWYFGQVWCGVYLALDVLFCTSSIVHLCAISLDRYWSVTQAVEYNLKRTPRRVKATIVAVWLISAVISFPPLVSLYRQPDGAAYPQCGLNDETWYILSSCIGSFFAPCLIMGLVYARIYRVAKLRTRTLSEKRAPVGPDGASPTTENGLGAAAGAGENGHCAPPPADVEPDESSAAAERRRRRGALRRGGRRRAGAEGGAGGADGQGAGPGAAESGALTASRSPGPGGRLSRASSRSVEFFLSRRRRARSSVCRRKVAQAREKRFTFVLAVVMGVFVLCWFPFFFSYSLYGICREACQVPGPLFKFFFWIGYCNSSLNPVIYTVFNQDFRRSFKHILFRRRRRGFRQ
The data set can be described thus: Agonist activity: inhibition of forskolin-stimulated cAMP synthesis. It counts as cell-based.

The target of data set [7] is T1, human α2A adrenergic receptor. The data set can be described thus: Radioligand binding assay, [3H]rauwolscine competition. On the set-up: expressed in transfected cells.
The target of data set [8] is T3, human α2C adrenergic receptor. Described as above.

For orientation: Ki means the dissociation constant of the complex between target and ligand, obtained from inhibition or displacement. The low end stands for higher affinity, the high end for lower affinity. For `c1nc2ccc(NC3=NCCN3)cc2s1`, the EC50 in data set [1] was found to be 417 nM. Also, the Ki in data set [2] was 102 nM.

With `c1nc2ccc(NC3=NCCS3)cc2s1`, the Ki in data set [2] came to 1070 nM.

Usually melting point stands for the temperature of the solid-liquid transition. For `Cc1c(NC2=NCCN2)ccc2[nH]ccc12` (as salt: fumarate), the melting point was 215 to 218 °C. Same read-out and setting: the result for `Cc1c(NC2=NCCN2)ccc2ncsc12` (as salt: fumarate) reads 213 to 215 °C. For `Brc1cc(NC2=NCCN2)cc2ncsc12` (as salt: fumarate), the melting point lay in the range of 209 to 211 °C. `Clc1cc(NC2=NCCN2)cc2ncsc12` (as salt: fumarate) yielded a melting point of 203 to 205 °C.

In turn, `Cc1cc(NC2=NCCN2)cc2ncsc12` (as salt: fumarate) displayed a melting point of 179 to 181 °C.

Turning to `CCc1cc(NC2=NCCN2)cc2ncsc12` (as salt: fumarate), the melting point is 218 to 220 °C. Take `Clc1cc(NC2=NCCN2)cc2cc[nH]c12` (as salt: fumarate): the melting point was in the range of 261 to 262 °C. `Cc1cc(NC2=NCCN2)cc2cc[nH]c12` (as salt: fumarate) came in with a melting point of 224 to 226 °C. `Brc1cc(NC2=NCCN2)cc2cc[nH]c12` (as salt: fumarate) [Example 2, 7-Bromo-5-(2-imidazolin-2-ylamino)indole] registered a melting point of 272 to 273 °C. Same read-out and setting: under `Cc1cc(NC2=NCCS2)cc2cc[nH]c12` (as salt: fumarate) [Example 8, 7-Methyl-5-(2-thiazolin-2-ylamino)indole] stands 200 to 202 °C; under `c1nc2cc(NC3=NCCN3)ccc2s1` (as salt: fumarate) [Example 13, 5-(2-Imidazolin-2-ylamino)benzothiazole], 201 to 203 °C; under `c1nc2ccc(NC3=NCCN3)cc2s1` (as salt: fumarate) [Example 14, 6-(2-Imidazolin-2-ylamino)benzothiazole], 215 to 216 °C.

Consider `c1nc2ccc(NC3=NCCS3)cc2s1` (as salt: fumarate) [Example 15, 6-(2-Thiazolin-2-ylamino)benzothiazole], for which the melting point lay within 181 to 183 °C.

`C=C(C)c1cc(NC2=NCCN2)cc2cc[nH]c12` (as salt: maleate) displayed a melting point of 154 to 156 °C. In turn, `CC(C)c1cc(NC2=NCCN2)cc2cc[nH]c12` (as salt: succinate) showed a melting point of 254 to 255 °C. As to `Cc1cc(NC2=NCCS2)cc2cc[nH]c12` [Example 8, 7-Methyl-5-(2-thiazolin-2-ylamino)indole], the EC50 in [3] was 13.8 nM; in data set [4] (inhibition of forskolin-stimulated cAMP, stably transfected cells expressing human α2B, read-out: pEC50 Alpha-2 B (converted)), 44.7 nM; in data set [6] (inhibition of forskolin-stimulated cAMP, stably transfected cells expressing human α2C, read-out: pEC50 Alpha-2 C (converted)), 2.19 nM. In data set [3] (maximum activity relative to maximum activity induced by norepinephrine, human α2A), the “I.A (Intrinsic Activity) Alpha-2 A” value is listed as 0.60. Further, the “I.A (Intrinsic Activity) Alpha-2 B” value in data set [4] (maximum activity relative to maximum activity induced by norepinephrine, human α2B) is 0.80. The Ki is 4.9 nM in data set [5], 0.832 nM in data set [7] and 24 nM in [8]. Further, the “I.A (Intrinsic Activity) Alpha-2 C” value in data set [6] (maximum activity relative to maximum activity induced by norepinephrine, human α2C) is recorded as 1.00.
